Measurements as given in the supplement of paper PMC10307832.

Key:
Assay in all cases: relative viability (nuclei count vs DMSO), 5 days (fraction); higher = more cells survive
Cediranib + Navitoclax = compound: COc1cc2c(Oc3ccc4[nH]c(C)cc4c3F)ncnc2cc1OCCCN1CCCC1 [Cediranib] + CC1(C)CCC(c2ccc(Cl)cc2)=C(CN2CCN(c3ccc(C(=O)NS(=O)(=O)c4ccc(N[C@H](CCN5CCOCC5)CSc5ccccc5)c(S(=O)(=O)C(F)(F)F)c4)cc3)CC2)C1 [Navitoclax] (partner 0.5 µM)
Procedure, shortened: (§1)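 Lung cancer cell lines were seeded in 1536-well plates and dosed by pin tool the next day, with either a single drug or a fixed anchor-drug dose combined with five library-drug doses (not always all listed) spaced in √10 steps. Five days later, one step fixed the cells and stained their nuclei (final 0.05% Triton X-100, 1% formaldehyde, 1 ug/ml Hoechst), and nuclei were counted on 4× images. Relative viability is the nuclei count in treated wells divided by the count in vehicle wells, and each value is the median of duplicate plates.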

Cediranib + Bortezomib = compound: COc1cc2c(Oc3ccc4[nH]c(C)cc4c3F)ncnc2cc1OCCCN1CCCC1 [Cediranib] + CC(C)C[C@H](NC(=O)[C@H](Cc1ccccc1)NC(=O)c1cnccn1)B(O)O [Bortezomib] (partner 0.002 µM)
Procedure, shortened: as §1

Decitabine + Tozasertib = compound: Nc1ncn([C@H]2C[C@H](O)[C@@H](CO)O2)c(=O)n1 [Decitabine] + Cc1cc(Nc2cc(N3CCN(C)CC3)nc(Sc3ccc(NC(=O)C4CC4)cc3)n2)n[nH]1 [Tozasertib] (partner 0.1 µM)
Procedure, shortened: as §1

[1] = compound: O=C(C[C@H]1NCCC[C@@H]1O)Cn1cnc2cc(Br)c(Cl)cc2c1=O (racemic) [Halofuginone] + CS(=O)(=O)N1CCN(Cc2cc3nc(-c4cccc5[nH]ncc45)nc(N4CCOCC4)c3s2)CC1 [Pictilisib] (partner 1 µM)
Procedure, shortened: as §1

Cell Line | relative viability (Cediranib + Navitoclax; first compound 0.04 µM) | relative viability (Cediranib + Navitoclax; first compound 0.1265 µM) | relative viability (Cediranib + Navitoclax; first compound 0.4 µM) | relative viability (Cediranib + Navitoclax; first compound 1.265 µM) | relative viability (Cediranib + Navitoclax; first compound 4 µM) | relative viability (Cediranib + Bortezomib; first compound 0.04 µM) | relative viability (Cediranib + Bortezomib; first compound 0.4 µM) | relative viability (Cediranib + Bortezomib; first compound 1.265 µM) | relative viability (Cediranib + Bortezomib; first compound 4 µM) | relative viability (Decitabine + Tozasertib; first compound 0.04 µM) | relative viability (Decitabine + Tozasertib; first compound 0.1265 µM) | relative viability (Decitabine + Tozasertib; first compound 1.265 µM) | relative viability (Decitabine + Tozasertib; first compound 4 µM) | relative viability ([1]; first compound 0.001 µM) | relative viability ([1]; first compound 0.003162 µM) | relative viability ([1]; first compound 0.01 µM) | relative viability ([1]; first compound 0.03162 µM) | relative viability ([1]; first compound 0.1 µM) | relative viability (Cediranib + Bortezomib; first compound 0.1265 µM) | relative viability (Decitabine + Tozasertib; first compound 0.4 µM)
RERF-LC-KJ | 0.974 | 1.29 | 0.756 | 0.926 | 0.734 | 1.09 | 1.04 | 1.11 | 1.17 | 0.511 | 0.446 | 0.309 | 0.379 | 0.568 | 0.601 | 0.543 | 0.531 | 0.433 | – | –
NCI-H1755 | 1.05 | 1 | 0.974 | 0.998 | 1.07 | 0.971 | 0.878 | 0.991 | 0.958 | 0.525 | 0.538 | 0.372 | 0.357 | 0.478 | 0.468 | 0.445 | 0.493 | 0.287 | 0.925 | 0.473
PC-14 | 0.989 | 1.03 | 1.02 | 0.905 | 1.24 | 0.889 | 0.734 | 0.878 | 0.902 | 0.25 | 0.182 | 0.0922 | 0.0951 | 0.573 | 0.635 | 0.5 | 0.262 | 0.037 | 0.831 | 0.0787
NCI-H322M | 1.22 | 1.21 | 1.08 | 1.21 | 1.14 | 1.29 | 1.32 | 1.24 | 1.28 | 0.415 | 0.484 | 0.35 | 0.376 | 0.484 | 0.514 | 0.489 | 0.486 | 0.502 | 1.56 | 0.426
NCI-H1666 | 0.875 | 1 | 0.989 | 1.09 | 1.1 | 0.9 | 0.852 | 0.815 | 0.836 | 0.514 | 0.577 | 0.502 | 0.517 | 0.483 | 0.357 | 0.443 | 0.406 | 0.323 | 0.607 | 0.615
A-427 | 0.903 | – | 0.909 | 0.875 | 0.94 | 0.998 | 0.972 | 0.925 | 1.01 | 0.195 | 0.136 | 0.123 | 0.135 | 0.683 | 0.749 | 0.73 | 0.756 | 0.66 | – | 0.118
NCI-H1651 | 1.04 | 1.01 | 0.899 | 1.02 | 1.18 | 0.972 | 0.915 | 0.914 | 0.894 | 0.521 | 0.718 | 0.378 | 0.371 | 0.677 | 0.586 | 0.548 | 0.522 | 0.243 | 0.87 | 0.6
NCI-H520 | 1.15 | – | 0.926 | 1.09 | 1.2 | 0.734 | 0.687 | 0.462 | 0.622 | 0.402 | 0.444 | 0.352 | 0.308 | 0.301 | 0.295 | 0.281 | 0.243 | 0.181 | – | 0.386
201T | 1.25 | 1.28 | 1.15 | 1.2 | 1.21 | 1.16 | 1.09 | 1.05 | 1.09 | 0.742 | 0.776 | – | 0.587 | 0.708 | 0.647 | 0.666 | 0.597 | 0.516 | 1.19 | 0.909
NCI-H460 | 1.12 | 1.1 | 0.938 | 0.993 | 1.33 | 1.06 | 1.01 | 0.987 | 1.39 | 0.325 | 0.24 | 0.0551 | 0.0621 | 0.393 | 0.345 | 0.336 | 0.345 | 0.299 | 1.23 | 0.27
NCI-H596 | 0.943 | 0.926 | 0.938 | 0.879 | 0.996 | 1.05 | 0.831 | 1 | 1.09 | 0.733 | 0.87 | 0.526 | 0.466 | 0.423 | 0.431 | 0.388 | 0.423 | 0.3 | 1.01 | –
HARA | 1.16 | 1.03 | 1.15 | 1.14 | 1.18 | 1.18 | 1.11 | 1.14 | 1.07 | 0.0975 | 0.0855 | 0.078 | 0.0747 | 0.556 | 0.461 | 0.402 | 0.436 | 0.235 | 1.01 | 0.0556
NCI-H2126 | 0.8 | 0.934 | 0.781 | 0.811 | 0.914 | 1.14 | 1.09 | 0.963 | 1.11 | 0.648 | 0.606 | 0.451 | 0.399 | 0.562 | 0.486 | 0.533 | 0.485 | 0.427 | 1.2 | 0.425
HCC-827 | 1.02 | – | 1.02 | 1.04 | 1.1 | 1.03 | 0.967 | 1.11 | 1.08 | 0.253 | 0.265 | 0.221 | 0.224 | 0.874 | 1.05 | 0.962 | 1.08 | 0.777 | – | 0.219
BEN | 0.0686 | 0.0663 | 0.0683 | 0.0702 | 0.0649 | 0.872 | 0.861 | 0.559 | 0.724 | 0.443 | 0.454 | 0.371 | 0.355 | 0.52 | 0.587 | 0.547 | 0.594 | 0.425 | 0.432 | 0.421
ChaGo-K-1 | 1.02 | – | 0.952 | 1.23 | 0.83 | 1.03 | 0.994 | 1.04 | 0.861 | 0.23 | 0.238 | 0.176 | 0.208 | 0.587 | 0.397 | 0.683 | 0.669 | 0.776 | – | 0.189
NCI-H23 | 0.974 | – | 0.615 | 0.702 | 0.794 | 1.07 | 0.938 | 0.907 | 1.32 | 0.256 | 0.199 | 0.195 | 0.172 | 0.507 | 0.518 | 0.47 | 0.415 | 0.296 | – | 0.152
